Data set [1] relates to SAPAP3 knockout mice. The data set can be described thus: Semi-quantitative scoring of lesion severity (scale 0-4). In kind it is in vivo, mouse. Here is the method:
Four cohorts of eight SAPAP3 knockout mice and four cohorts of eight wild type mice were housed in isolation and allowed to acclimate as above. One cohort of each genotype served as a 5 mg/kg Fluoxetine experimental group, one as a 10 mg/kg Fluoxetine experimental group, one as a vehicle control group, and one as an uninjected control group.

Data set [2] concerns SAPAP3 knockout mice. The experiment in a line: Videotaped grooming behaviour scoring after Fluoxetine treatment. Type of data set: in vivo, mouse. The note with it: 5 mg/kg daily intraperitoneal, after six days, vs SAPAP3 knockout vehicle control group. Here is the method:
To ascertain the source of the lesions quantitative, video studies of the knockout mice were performed. Groups of 10 wild type mice and 10 knockout mice were housed such that each mouse was isolated in a single cage. Following an acclimatization period to individual housing, each mouse was videotaped for 24 hours. Three, four-hour sections (10 AM-2 PM, 6 PM-10 PM, and 2 AM-6 AM) of each 24-hour period were watched and scored for a panel of behaviors: grooming, drinking/eating, sleeping, rearing, digging/shifting, or alert/active. When analyzed on either a “time spent” or “number of bouts engaged in” basis, it was obvious that SAPAP3 knockout mice groomed far more than their wild type counterparts in every time period examined (see FIGS. 3 and 4).
Two cohorts of eight SAPAP3 knockout mice and two cohorts of eight wild type mice were housed in isolation and allowed to acclimate as in Example 2. One cohort of each genotype served as an experimental group and the other as a vehicle control group. The experimental groups were given a daily intraperitoneal injection of 5 mg/kg Fluoxetine for fourteen days. The control groups were given a daily vehicle injection under the same conditions.
After six days, mice from each group were individually videotaped and their behaviors scored as in Example 2. […]

The test system of a further data set is SAPAP3 knockout animals. The note with it: mouse, in vivo, 10 mg/kg.
The test system of data set [3] is SAPAP3 knockout mice. The data set can be described thus: Light-dark box emergence test after Fluoxetine treatment. Conditions: after 6 days of treatment with 5 mg/kg, intraperitoneal. Type of data set: in vivo, mouse.
Description: In the light dark box test, SAPAP3 knockout mice and wild type mice were individually placed into the dark half a two chamber box. The box contained a completely dark chamber and a chamber lit with a bright light. At time=0, the door was opened between the two chambers.
Following videotaping, the four groups of mice were tested on the light-dark box emergence test.
The mark [4] stands for this setting: share of SAPAP3 KO mice, Fluoxetine groups (5 and 10 mg/kg) combined, at two weeks.

For the molecule `CNCCC(Oc1ccc(C(F)(F)F)cc1)c1ccccc1` (stereo not shown) [Fluoxetine], in the data set with SAPAP3 knockout mice [1] (SAPAP3 knockout mice, 5 and 10 mg/kg groups combined vs vehicle and uninjected groups combined, over a 2 week period), the “lesion severity (scale of 0-4)” value is “stabilized or improved lesions”. Also, in the data set on SAPAP3 knockout mice [1] (setting [4]), the “Lesion severity: Improve” value came to 28.6%, the “Lesion severity: No Change” value is 71.4% and the “Lesion severity: Worse” value amounted to 0%. Moreover, the bouts of grooming result in the data set on SAPAP3 knockout mice [2] was “far fewer bouts of grooming”. The “toxicity to SAPAP3 knockout animals relative to wild type controls” value with SAPAP3 knockout animals is recorded as “progressively more toxic”. Moreover, the “performance on the light-dark box emergence test (latency to leave dark chamber)” value with SAPAP3 knockout mice [3] was “significantly improved”.
